Legend:
granulocytes = assay: Accumulation in granulocytes (LC-MS); format: in vitro ADME; conditions: 180 min
Protocol: Granulocytes were obtained from heparinized whole blood using density gradient centrifugation. Erythrocytes were sedimented on 3% dextran T-500 (Amersham Pharmacia Biotech AB, Uppsala, Sweden). Leukocytes were centrifuged on Ficoll (Amersham Pharmacia Biotech AB, Uppsala, Sweden) for 35 min at 600 g at 20° C. The pellet of granulocytes was cleared from remaining erythrocytes by a brief hypotonic lysis.
7.5×10^6 granulocytes, isolated as described above, were suspended in 3 mL of RPMI 1640 (Institute of Immunology, Croatia) containing 10 μM of tested macrolide. Samples were incubated at 37° C. for 180 min. Following incubation, the samples were centrifuged through the layer of Poly(dimethylsiloxane-co-diphenylsiloxane), dihydroxy terminated—silicone oil (Aldrich Chemical Company, Milwaukee, USA). The pellet was resuspended in 0.5% Triton X-100 (Sigma, St. Louis, USA) in deionized water (MilliQ, Millipore Corporation, Bedford, USA). The suspension was sonicated, proteins were precipitated with acetonitrile, and the concentration of macrolide in the supernatants was determined by liquid chromatography-mass spectrometry (LC-MS).
Intracellular concentrations of the test compounds were calculated from the mean cell number recovered after centrifuging through silicone oil. According to the literature, about 1 million neutrophils is considered to have a volume of 0.24 μL (Vazifeh et al., Antimicrob Agents Chemo. 1997; 41: 2099-2107). To estimate the extent of macrolide accumulation, the intracellular to extracellular concentration ratio (I/E) was calculated, where E (due to a large volume of incubation medium) was taken as constant (10 μM). Results are expressed relative to azithromycin according to the following equation: % of azithromycin uptake=(I/E of a substance/I/E of azithromycin)×100. I/E values obtained for azithromycin were 164±10.

Male BALB/cJ mice = assay: Lung neutrophilia induced by bacterial lipopolysaccharide in male BALB/cJ mice; format: in vivo; conditions: single 5 mg dose i.p., intranasal LPS, BALF about 24 hours after LPS, compared to positive control
Protocol: Male BALB/cJ mice (Iffa Credo, France), with average weight ˜30 g were randomly grouped (n=7 in testing group, 8 in positive control, 7 in negative control). Mice were administered intraperitoneally (i.p.) a single 5 mg dose of test compound. Two hours after administration, 2 μg of bacterial lipopolysaccharide (LPS), dissolved in PBS in a volume of 60 μL, was intranasally administered to all experimental groups except the negative control group, which received the same volume (60 μL) of vehicle PBS. Animals were sacrificed approximately 24 hours after application of LPS in order to obtain bronchoalveolar lavage fluid (BALF), which was used to determine concentrations of IL-6 and TNF-α, absolute number of cells, and the percentage of neutophils in BALF. Results are expressed as percentage of decrease of total cell number, relative number of neutrophils, and TNF-α and IL-6 concentration in BALF of treated animals compared to positive control (LPS stimulated, but untreated animals).
Besides accumulation of inflammatory cells in BALF, the extent and anatomic site of pulmonary inflammation induced by LPS was assessed 24 hours after PBS or LPS exposure. Accumulation of granulocytes and mononuclear cells in peribronchial (PB) and perivascular (PV) lung tissue areas and in alveolar spaces was monitored following sacrifice of the animals.

CCC1OC(=O)C(C)C(OC2CC(C)(OC)C(O)C(C)O2)C(C)C(OC2OC(C)CC(N(C)C)C2O)C(C)(O)CC(C)CN(C(=S)Nc2cccc(F)c2)C(C)C(O)C1(C)O (stereo not drawn) [Compound 3] was tested, and the “% of azithromycin uptake” value (granulocytes; granulocytes, 10 μM macrolide, 37° C., (I/E of substance/I/E of azithromycin)×100) was 93%.

With CCC1OC(=O)C(C)C(O)C(C)C(OC2OC(C)CC(N(C)C)C2O)C(C)(O)CC(C)CN(C(=S)NCc2ccccc2)C(C)C(O)C1(C)O (stereo not drawn) [Compound 1] the “percentage of decrease of IL-6 concentration in BALF” value (Male BALB/cJ mice) was 28, the “percentage of decrease of TNF-α concentration in BALF” value (Male BALB/cJ mice) was 41 and the “percentage of decrease of relative number of neutrophils (% of neutrophils) in BALF” value (Male BALB/cJ mice) was 9. For the same compound, the “percentage of decrease of total cell number in BALF” value (Male BALB/cJ mice) was 50.

With CC[C@H]1OC(=O)[C@H](C)[C@@H](O[C@H]2C[C@@](C)(OC)[C@@H](O)[C@H](C)O2)[C@H](C)[C@@H](O[C@@H]2O[C@H](C)C[C@H](N(C)C)[C@H]2O)[C@](C)(OC)C[C@@H](C)C(=O)[C@H](C)[C@@H](O)[C@]1(C)O [Clarithromycin, clarithromycin, reference compound] the “percentage of decrease of IL-6 concentration in BALF” value (Male BALB/cJ mice) was 60, the “percentage of decrease of TNF-α concentration in BALF” value (Male BALB/cJ mice) was 78 and the “percentage of decrease of relative number of neutrophils (% of neutrophils) in BALF” value (Male BALB/cJ mice) was 36. For the same compound, the “percentage of decrease of total cell number in BALF” value (Male BALB/cJ mice) was 77.

CC[C@H]1OC(=O)[C@H](C)[C@@H](O[C@H]2C[C@@](C)(OC)[C@@H](O)[C@H](C)O2)[C@H](C)[C@@H](O[C@@H]2O[C@H](C)C[C@H](N(C)C)[C@H]2O)[C@](C)(O)C[C@@H](C)CN(C)[C@H](C)[C@@H](O)[C@]1(C)O [Azithromycin, azithromycin, reference compound] was tested, and the “% of azithromycin uptake” value (granulocytes; 10 μM) was 100%, the “intracellular to extracellular concentration ratio (I/E)” value (granulocytes; 10 μM) was 164±10 and the “percentage of decrease of IL-6 concentration in BALF” value (Male BALB/cJ mice) was 72. The “percentage of decrease of TNF-α concentration in BALF” value (Male BALB/cJ mice) was 66, the “percentage of decrease of relative number of neutrophils (% of neutrophils) in BALF” value (Male BALB/cJ mice) was 37 and the “percentage of decrease of total cell number in BALF” value (Male BALB/cJ mice) was 77.

Reference: patent US20080200403A1, “9A-Carbamoyl and Thiocarbamoyl Azalides with Anti-Inflammatory Activity” (GLAXOSMITHKLINE, priority 2005, published 2008)
